Laboratory results taken from the supplement of paper PMC11451515.

System: P12-Ichikawa
Test: cell viability relative to DMSO control; higher = less cytotoxic
Conditions: 48 h
Outline: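 Three leukemia lines were tested: NOMO1 and SEM at 500 cells/well and P12-Ichikawa at 1000 cells/well. Each was adapted for at least four passages in each medium and seeded in 5 μl in 1536-well plates, and library compounds in DMSO were pin-dosed from 47 μM to 0.79 nM in 11 threefold steps. After 48 h at 37°C, CellTiter-Glo One luminescence was read. Viability is a percentage relative to DMSO wells on each plate, with cell-free wells as background.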

[1] = HPLM + 10% dialyzed FBS, 0.000781 µM
[2] = HPLM + 10% dialyzed FBS, 0.00234 µM
[3] = HPLM + 10% dialyzed FBS, 0.00702 µM
[4] = HPLM + 10% dialyzed FBS, 0.0211 µM
[5] = HPLM + 10% dialyzed FBS, 0.0632 µM
[6] = HPLM + 10% dialyzed FBS, 0.19 µM
[7] = HPLM + 10% dialyzed FBS, 0.569 µM
[8] = HPLM + 10% dialyzed FBS, 1.71 µM
[9] = HPLM + 10% dialyzed FBS, 5.12 µM
[10] = HPLM + 10% dialyzed FBS, 15.4 µM
[11] = HPLM + 10% dialyzed FBS, 46.1 µM
[12] = RPMI 5 mM glucose + 10% FBS, 0.000781 µM
[13] = RPMI 5 mM glucose + 10% FBS, 0.00234 µM
[14] = RPMI 5 mM glucose + 10% FBS, 0.00702 µM
[15] = RPMI 5 mM glucose + 10% FBS, 0.0211 µM
[16] = RPMI 5 mM glucose + 10% FBS, 0.0632 µM
[17] = RPMI 5 mM glucose + 10% FBS, 0.19 µM
[18] = RPMI 5 mM glucose + 10% FBS, 0.569 µM
[19] = RPMI 5 mM glucose + 10% FBS, 1.71 µM
[20] = RPMI 5 mM glucose + 10% FBS, 5.12 µM
[21] = RPMI 5 mM glucose + 10% FBS, 15.4 µM
[22] = RPMI 5 mM glucose + 10% FBS, 46.1 µM
[23] = RPMI 5 mM glucose + 10% dialyzed FBS, 0.000781 µM
[24] = RPMI 5 mM glucose + 10% dialyzed FBS, 0.00234 µM
[25] = RPMI 5 mM glucose + 10% dialyzed FBS, 0.00702 µM
[26] = RPMI 5 mM glucose + 10% dialyzed FBS, 0.0211 µM
[27] = RPMI 5 mM glucose + 10% dialyzed FBS, 0.0632 µM
[28] = RPMI 5 mM glucose + 10% dialyzed FBS, 0.19 µM
[29] = RPMI 5 mM glucose + 10% dialyzed FBS, 0.569 µM
[30] = RPMI 5 mM glucose + 10% dialyzed FBS, 1.71 µM
[31] = RPMI 5 mM glucose + 10% dialyzed FBS, 5.12 µM
[32] = RPMI 5 mM glucose + 10% dialyzed FBS, 15.4 µM
[33] = RPMI 5 mM glucose + 10% dialyzed FBS, 46.1 µM

SMILES	cell viability [1]	cell viability [2]	cell viability [3]	cell viability [4]	cell viability [5]	cell viability [6]	cell viability [7]	cell viability [8]	cell viability [9]	cell viability [10]	cell viability [11]	cell viability [12]	cell viability [13]	cell viability [14]	cell viability [15]	cell viability [16]	cell viability [17]	cell viability [18]	cell viability [19]	cell viability [20]	cell viability [21]	cell viability [22]	cell viability [23]	cell viability [24]	cell viability [25]	cell viability [26]	cell viability [27]	cell viability [28]	cell viability [29]	cell viability [30]	cell viability [31]	cell viability [32]	cell viability [33]
CN[C@@H](C)C(=O)N[C@H]1CN(C(=O)CC(C)C)CC[C@H]2CC[C@@H](C(=O)NC(c3ccccc3)c3ccccc3)N2C1=O	98.3%	104%	107%	111%	110%	102%	103%	100%	96.7%	14.8%	10.2%	96.8%	110%	109%	111%	114%	112%	112%	108%	87.3%	18.1%	10.2%	90.1%	113%	101%	115%	105%	111%	112%	107%	97.8%	43.3%	16.1%
O=C1Nc2ccc(I)cc2/C1=C/c1cc(Br)c(O)c(Br)c1	103%	100%	103%	105%	109%	105%	108%	102%	102%	98.2%	86.4%	99%	110%	106%	103%	101%	104%	102%	104%	101%	96.7%	79%	106%	111%	110%	107%	103%	111%	108%	101%	100%	93.4%	84%
CC[C@@]1(O)C(=O)OC\C2=C1\C=C\3N(CC4=C3N=C5C=CC=CC5=C4)C2=O	122%	120%	107%	86.1%	13.3%	10.1%	7.26%	5.09%	4.83%	3.78%	5.54%	115%	113%	116%	69.9%	10.9%	7.97%	6.35%	4.58%	3.68%	3.91%	6.1%	115%	115%	107%	59.8%	16.8%	9.84%	7.6%	5.62%	4.44%	4.32%	6.06%
CN[C@@H]1Cc2cccc3[nH]c(=O)n(c23)C1	124%	123%	114%	115%	122%	117%	108%	117%	108%	106%	111%												122%	122%	116%	130%	117%	123%	115%	109%	108%	111%	105%
COc1cc2c(Nc3ccc(Br)cc3F)ncnc2cc1OCC1CCN(C)CC1	87.8%	93.5%	91.3%	91.1%	91.9%	88.4%	87.8%	82.8%	89.9%	73.9%	86.9%	82%	81.8%	79%	87.7%	87.3%	81.7%	85.2%	84.8%	80.6%	80.9%	83%	88.7%	86.1%	84.6%	83.3%	88.3%	88.8%	84.5%	84.4%	76.9%	68%	79.8%
COc1cc([C@H]2Oc3cc([C@H]4Oc5cc(O)cc(O)c5C(=O)[C@@H]4O)ccc3O[C@@H]2CO)ccc1O	108%	118%	106%	109%	118%	119%	112%	110%	105%	99.8%	99.8%	113%	112%	125%	109%	113%	104%	98.9%	112%	116%	101%	94.2%	102%	109%	115%	105%	111%	106%	103%	101%	96.7%	100%	90.1%
COC(=O)C1C2CC3c4[nH]c5cc(OC)ccc5c4CCN3CC2CC(OC(=O)c2cc(OC)c(OC)c(OC)c2)C1OC (stereo not given)	106%	109%	112%	107%	115%	111%	101%	105%	110%	107%	102%	115%	120%	121%	114%	107%	109%	118%	112%	111%	113%	91%	121%	106%	119%	114%	104%	113%	105%	106%	107%	99.5%	102%
